Data as given in US20100112012A1, “MODULATION OF IMMUNE RESPONSES” (CLEVELAND CLINIC FOUNDATION, priority 2005, published 2010).
“Also recorded” adds a separate entry of the source. Where two headings read alike, the source gives them in different places.

Key:
[1] = tested on: ACHN cells; assay: Experimental chemotherapy of tumor xenografts; type: in vivo, nude mice; details: ACHN xenograft nude mice; QC 50 mg/kg; 5-fluorouracil 35 mg/kg
Method: NIH Swiss athymic nude, male mice, 5-6 weeks old, were purchased from Harlan. 5×10^6 tumor cells were inoculated into the flanks of mice in 100 μL of PBS. When tumors reached 5 mm in diameter, intraperitoneal injections of drugs were started in 100 μL of a solution of 50% DMSO in PBS (except for quinacrine, which was dissolved in PBS). As vehicle, 50% DMSO solution in PBS was used. Tumor size was measured in three dimensions every other day.

[2] = tested on: p53; assay: p53-responsive reporter activity in tumor cells (HT1080 and others); type: cell-based, human; details: for time of peak (maximum) p53 reporter activity: HT1080 cells
Method: (§1) Transient transfections. 2×10^5 cells were plated into 6-well plates and, after overnight incubation, transfected with Lipofectamin Plus reagent (Gibco BRL) with 0.5 μg of reporter plasmids (p21-ConALuc or pNF-κBLuc) in combination with different concentrations of plasmids expressing p53, Arf, Ss-IκB, or siHDM2. Corresponding empty vectors were added in all transfections up to 2 μg of total DNA. Normalization of transfection efficiency was done by adding 0.2 μg of pCMV-LacZ plasmid. Luciferase activity and β-galactosidase activity were measured in lysates prepared 48 hours after transfection with Cell Lysis Buffer (Promega) by the luciferase assay system (Promega) or β-galactosidase enzyme system (Promega). Luminometric and colorimetric reactions were read on the Wallack 1420 plate reader (Perkin Elmer). Stable transduction of reporters. 2×10^4 cells with integrated reporter were plated in 96-well plates. After overnight incubation, chemicals or media from lentivirus-producing cells were added. At different times, cell lysates were prepared using Reporter Lysis Buffer (Promega). Luciferase or β-galactosidase activity and protein concentration were measured in aliquots of cell lysates using standard kits (Promega, Luciferase and β-galactosidase assay systems, Biorad Protein Assay Kit).

[3] = tested on: proteasomal activity; assay: Proteasome inhibitor assay; type: biochemical; details: direct in vitro assay (not shown)
From the text: The kit for assaying proteasomal activity was purchased from Boston Biochem, Inc. and used according to the manufacturer's recommendations.

[4] = tested on: p65 subunit of NF-κB; assay: Phosphorylation of serine 536 of p65 (Western analysis); type: cell-based, human; details: basally and after TNF-dependent induction; 9AA 10 μM
Method: (§2) Cells were lysed in RIPA buffer (25 mM Tris HCl, pH 7.2, 125 mM NaCl, 1% NP40, 1% sodium deoxycholate, 1 mM EDTA) containing 1 mM PMSF (Sigma), 10 ug/ml of aprotinin (Sigma) and 10 ug/ml of leupeptin (Sigma). Protein concentrations were determined with the BioRad Dc protein assay kit. Equal protein amounts were run on gradient 4-20% precast gels (Novex) and blotted onto PVDF membranes (Amersham). The following antibodies were used: anti-p53—monoclonal mouse DO1 (Santa-Cruz), anti-p21—monoclonal mouse F-5 (Santa-Cruz), anti-mdm2—monoclonal mouse SMP14 (Santa-Cruz), anti-p65—(C20, Santa Cruz), anti-phospho-p65—(ser536, Cell Signaling), anti-IκBa—(C21, Santa Cruz), anti-p50—(NLS, Santa Cruz), anti-IKK1 (Cell Signaling), anti-γH2X (Cell Signaling), anti-actin (Santa Cruz). p53 phosphorylation status was analyzed using the phospho-p53 sampler kit from Cell Signaling according to the manufacturer's recommendations. HRP-conjugated secondary antibodies were purchased from Santa Cruz. Quantitation of the data was performed using Quantity One software from BioRad.

[5] = tested on: p53; assay: p53, p21 and Mdm2 levels in treated cells (Western analysis); type: cell-based, human
Method: as §2

[6] = tested on: RCC cell lines; assay: Growth inhibition assay, RCC, non-RCC and normal kidney (NKE) cells; type: cell-based, human
Method: Growth inhibition assay. […] Cell survival was estimated after an additional 48 hours, using standard Methylene Blue staining followed by extraction and colorimetrical detection of the dye.

[7] = tested on: p53; assay: Screening for p53-activating compounds, p53-responsive reporter in RCC45ConALacZ cells; type: cell-based, human
Method: as §1
The DiverSet library of 34,000 chemical compounds and focused libraries of structural analogues of selected hits were provided by Chembridge, Calif. Cell lines with p53- or NF-κB-responsive luciferase or β-galactosidase reporters were described previously (5, 7). For screening chemicals, 2×10^4 RCC45ConALacZ cells (RCC45-based p53 reporter cells) were plated per well of 96-well plates in 200 μL of phenol-red-free RPMI medium with standard additions. After overnight incubation, the compounds were added to final concentrations of 5-15 μM (0.2 μL of compound in DMSO per well). […] After 24 h, lysis buffer with ortho-nitrophenyl-β-D-galactopyranoside (ONPG) was added and β-galactosidase activity was estimated colorimetrically by a multiwell plate reader.

[8] = tested on: HT1080 cells; assay: Cell cycle analysis; type: cell-based, human; details: p53-dependent
Method: At the end of the incubation period, cells were collected, fixed and stained with propidium iodide as previously described (3a). DNA content was measured using FACScalibur (Becton Dickinson) and analyzed using CellQuest software.

[9] = tested on: NF-κB; assay: Electromobility shift assay and immunofluorescent staining of nuclear NF-κB; type: cell-based, human
From the text: (§3) All washings were done with blocking solution.

[10] = tested on: topoisomerase II; assay: DNA topoisomerase II activity assay; type: cell-based, human; details: direct in vitro assay, 1 h
[11] = tested on: p53-deficient cells
Method: (§4) All cells were maintained in RPMI 1640 medium, supplemented with 10% FBS, 1 mM sodium pyruvate, 10 mM Hepes buffer, 55 nM β-mercaptoethanol and antibiotics. […] Cells with inhibited p53 expression were generated by retroviral transduction of pBabeH1-sip53 or pBabeH1-siGFP vectors for siRNA expression with following selection on puromycin.
(§5) Clonogenic survival. 5×10^3 cells were plated in 6-well plates and treated with different concentrations of drugs for 24 hours. Then fresh drug-free medium was added and the numbers of colonies were estimated 7-14 days later. Growth inhibition assay. […] Cell survival was estimated after an additional 48 hours, using standard Methylene Blue staining followed by extraction and colorimetrical detection of the dye.

[12] = tested on: p53; assay: Phosphorylation status of p53 (Western analysis); type: cell-based, human; details: RCC45 cells, 9AA 5 μM, 16 h
Method: as §2

[13] = tested on: IκBα; assay: IκBα level (Western analysis); type: cell-based, human
Method: as §2

[14] = tested on: p53; assay: Transient transfection of sr-IκB with p53-responsive reporter; type: cell-based, human; details: ACHN cells, 9AA 10 μM, 24 h
Method: as §1

[15] = tested on: RCC45 and RCC54 cells; assay: Growth arrest or apoptosis of RCC cells treated with 9AA; type: cell-based, human
[16] = tested on: NF-κB; assay: NF-κB-dependent reporter in H1299-NF-kBLuc cells; type: cell-based, human; details: for basal activity of NF-κB: H1299-NF-κBLuc cells, tested side-by-side with 9AA
Method: as §1

[17] = tested on: histone H2A.X; assay: Immunofluorescent detection of phosphorylated histone H2A.X; type: cell-based, human; details: HT1080 cells, 10 μM
From the text: as §3

[18] = tested on: p53-deficient cells; assay: Survival of isogenic pairs of tumor cells differing in p53 expression; details: isogenic pairs of cell lines, shRNA-mediated p53 knockdown
Method: as §4, §5

[19] = tested on: p53; assay: p53 reporter in organ cultures of human RCC tumor samples; type: cell-based; details: organ cultures of adjacent normal kidney, 12 hours
Method: FIG. 11. QC can activate p53 transactivation in organ cultures of human RCC tumor samples. Fresh surgically removed samples of tumor and adjacent normal kidney were cut into small pieces and put into media containing ConALacZ virus (5×10^7 TU/ml) with […] of polybrene for 4 hours. 24 hours after infection, tissue pieces (at least three per treatment) were incubated with media containing quinacrine or doxorubicin for 12 hours. Then the tissues were fixed for 30 min in PBS containing 0.5% glutaraldehyde and 1 mM MgCl2. Pieces of tumor were stained in PBS solution containing X-gal (1 mM MgCl2, 3.3 mM K4Fe(CN)6, 3.3 mM K3Fe(CN)6, 0.02% NP40, 0.2% X-gal) overnight at 37° C. Stained specimens were analyzed microscopically by squeezing pieces of tumor and normal tissues between two glass slides.

[20] = PLA2 inhibitors, data not shown

O=c1[nH]cc(F)c(=O)[nH]1 [5-fluorouracil]
weight loss [1]: up to 20%

Nc1c2ccccc2nc2ccccc12 [9AA, 9-aminoacridine]
time of peak (maximum) p53 reporter activity [2]: 24 h | activation of p53-mediated transcription compared with DNA-damaging agents ([2]; tumor cells with wild-type p53, 9AA 1-10 μM, doxorubicin 0.2-2 μM, 24 h): more strongly than doxorubicin in the majority of tumor cells tested; also recorded: more strongly than DNA-damaging agents | inhibition of proteasomal activity [3]: ruled out | proportion of phosphorylated serine 536 in the p65 subunit of NF-κB [4]: reduce the proportion of phosphorylated serine 536; also recorded: decreases the phosphorylation of p65 in response to TNF | levels of the endogenous proteins p21 and Mdm2 ([5]; cells treated for 16 h): dose-dependent increase | p53 mRNA expression ([5]; data not shown): No increase | stabilization and accumulation of p53 protein ([5]; treated cells (HT1080, 5 μM 9AA, 16 hours in FIG. 6)): induced stabilization and accumulation of p53 protein; also recorded: leads to p53 stabilization | IC50 in RCC cells compared with non-RCC cells ([6]; 6 RCC and 6 non-RCC cell lines, growth inhibition assay): in the same range as for non-RCC cells | sensitivity of RCC-derived cell lines versus normal kidney epithelial (NKE) cells ([6]; 72 h after treatment): more toxic for RCC than for NKE cells; also recorded: more sensitive to 9AA than normal kidney epithelial cells | activation of the p53-dependent reporter (p53 transactivation) in RCC [7]: structure primarily responsible for induction of the reporter | effect on the cell cycle ([8]; 3 μM): growth arrest | effect on the cell cycle ([8]; 20 μM): apoptosis | binding of NF-κB to DNA ([9]; H1299-NF-κBLuc cells, with TNF 10 ng/ml, 6 h, gel-shift): significant increase in the binding of NF-κB to DNA | nuclear accumulation and retention of NF-κB (p65) complexes ([9]; TNF 10 ng/ml, 10 μM): greatly prolonged the time of its presence in nuclei; also recorded: causes nuclear accumulation of inactive NF-κB; also recorded: causes accumulation of p65/p50 and p50/p50 NF-κB complexes in the nuclei | composition of NF-κB complexes ([9]; gel-shift assays with antibodies, H1299 cells): did not significantly change the composition of NF-κB complexes | poisoning of topoisomerase II [10]: no such activity | toxicity to p53-deficient cells (p53 dependence of cytotoxicity) [11]: less toxic to p53-deficient cells | phosphorylation of p53 [12]: did not induce the phosphorylation of p53 | phosphorylation of p53 serine 392 [12]: increasingly phosphorylated | level of IκBα ([13]; PC-3 cells 10 μM 1-8 h, MCF7 cells 10 μM): gradual decrease or even complete disappearance of IκBα | TNF-stimulated induction of IκBα ([13]; TNF 10 ng/ml, 9AA 10 μM): blocked; also recorded: inhibits reconstitution of the level of IκB protein | activation of a p53-dependent reporter in the presence of sr-IκB [14]: could not further activate | cellular effect in RCC45 and RCC54 cells ([15]; 2 μM): growth arrest | cellular effect in RCC45 and RCC54 cells ([15]; 10 μM): apoptosis | basal and TNF-induced NF-κB reporter activities ([16]; H1299-NF-kB-Luc cells, TNF 10 ng/ml): strong dose-dependent suppression; also recorded: capable of inhibiting both basal and TNF-induced activities of NF-κB | inhibition of NF-κB transactivation induced by trichostatin A ([16]; H1299 cells, 100 nM TSA, 9AA 20 μM, 4 or 16 hours): could no longer be blocked by 9AA; also recorded: does not inhibit | phosphorylation of histone H2A.X [17]: Neither 9AA nor QC induced phosphorylation of histone H2A.X

Cc1ccc(S(=O)(=O)/C=C/C#N)cc1 [Bay11-7082]
activation of p53 by known NF-κB inhibitors ([2]; data not shown): capable of activating p53 | basal activity of NF-κB [16]: did not reduce the basal activity

CC[C@@]1(O)C(=O)OCc2c1cc1n(c2=O)Cc2cc3ccccc3nc2-1 [camptothecin]
toxicity to p53-deficient cells (p53 dependence of cytotoxicity) [18]: equally or even more toxic than 9AA to p53-deficient cells

COc1cc(CNC(=O)CCCC/C=C/C(C)C)ccc1O [capsaicin]
activation of p53 by known NF-κB inhibitors ([2]; data not shown): capable of activating p53 | basal activity of NF-κB [16]: did not reduce the basal activity

COc1cccc2c1C(=O)c1c(O)c3c(c(O)c1C2=O)C[C@@](O)(C(=O)CO)C[C@@H]3O[C@H]1C[C@H](N)[C@H](O)[C@H](C)O1 [doxorubicin]
time of peak (maximum) p53 reporter activity [2]: 8 to 12 h | p53-responsive reporter induction in normal kidney samples [19]: no reporter induction | activation of the p53-dependent reporter (p53 transactivation) in RCC [7]: weakly activating | toxicity to p53-deficient cells (p53 dependence of cytotoxicity) [18]: equally or even more toxic than 9AA to p53-deficient cells

O=C(O)c1cc(/N=N/c2ccc(S(=O)(=O)Nc3ccccn3)cc2)ccc1O [sulfasalazine]
activation of p53 by known NF-κB inhibitors ([2]; data not shown): capable of activating p53 | basal activity of NF-κB [16]: did not reduce the basal activity

CC(=O)O[C@H]1C(=O)[C@@]2(C)[C@H]([C@H](OC(=O)c3ccccc3)[C@]3(O)C[C@H](OC(=O)[C@H](O)[C@@H](NC(=O)c4ccccc4)c4ccccc4)C(C)=C1C3(C)C)[C@]1(OC(C)=O)CO[C@@H]1C[C@@H]2O [taxol]
toxicity to p53-deficient cells (p53 dependence of cytotoxicity) [18]: equally or even more toxic than 9AA to p53-deficient cells

CCCCCCCCCCCCCCCCSC[C@H](COP(=O)(O)OCC[N+](C)(C)C)NC(=O)CCCCCCCCCCCCCCC [thioetheramide-PC]
induction of p53 [2, 20]: could neither induce p53 | inhibition of NF-κB [16, 20]: nor inhibit NF-κB

CC(/C=C/C(=O)NO)=C\[C@@H](C)C(=O)c1ccc(N(C)C)cc1 [trichostatin A]
NF-κB-dependent transcription ([16]; H1299 cells, 100 nM TSA, 4 or 16 hours): strong activation of NF-κB-dependent transcription

CC[C@]1(O)C[C@@H]2CN(CCc3c([nH]c4ccccc34)[C@@](C(=O)OC)(c3cc4c(cc3OC)N(C)[C@H]3[C@@](O)(C(=O)OC)[C@H](OC(C)=O)[C@]5(CC)C=CCN6CC[C@]43[C@@H]65)C2)C1 [vinblastine]
toxicity to p53-deficient cells (p53 dependence of cytotoxicity) [18]: equally or even more toxic than 9AA to p53-deficient cells
